From patent US11485733B2, “Azaquinoline derivatives” (BAYER ANIMAL HEALTH GMBH, priority 2017, dated 2022)
Several values for one entry are separate records, joined by “and”; a condition that tells them apart may be missing. Equal values may be shown once.

Tests used:
D. immitis Slo-1 = D. immitis Slo-1 (Dirofilaria immitis, UniProt I0DFK5); test: D. immitis Slo-1, action at a recombinant CHO cell line (membrane potential, FLIPR); assay type: cell-based
[1] = tested on: Nippostrongylus brasiliensis; test: Nippostrongylus brasiliensis (NIPOBR) adult worms, acetylcholine esterase readout; conditions: read-out: activity (reduction of AChE compared to negative control); for inhibition at 1 µg/mL: at 1 μg/ml (1 ppm); for inhibition at 10 µg/mL: at 10 μg/ml (10 ppm)
Outline: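 Adult worms washed in saline with penicillin/streptomycin/amphotericin B, then incubated in medium with test compound (DMSO) at final 10 μg/ml (10 ppm) or 1 μg/ml (1 ppm). Acetylcholine esterase activity in a medium aliquot served as anthelmintic readout, compared with negative control.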

[2] = tested on: Dirofilaria immitis microfilariae; test: Dirofilaria immitis microfilariae (DIROIM L1) motility; conditions: 72 h, read-out: EC50 (reduction of motility)
Dirofilaria immitis = Dirofilaria immitis (DIROIM L4) larval motility; conditions: 72 h, read-out: EC50 (reduction of motility)
Cooperia curticei = Cooperia curticei larval mortality; conditions: 120 h, read-out: activity (percentage of larval mortality)
Procedure: In Vitro Assay 6: Cooperia curticei
Solvent: Dimethyl Sulfoxide
Approximately 40 nematode larvae (Cooperia curticei) are transferred into a test tube containing the compound solution.
After 5 days percentage of larval mortality is recorded. 100% efficacy means all larvae are killed; 0% efficacy means no larvae are killed.

Haemonchus contortus = Haemonchus contortus larval mortality; conditions: 120 h, read-out: activity (percentage of larval mortality)
Procedure: In Vitro Assay 7: Haemonchus contortus
Solvent: Dimethyl Sulfoxide
Approximately 40 larvae of the red stomach worm (Haemonchus contortus) are transferred into a test tube containing compound solution.
After 5 days the percentage of larval mortality is recorded. 100% efficacy means all larvae are killed, 0% efficacy means no larvae are killed.

[3] = tested on: Litomosoides sigmodontis third-stage larvae; test: Litomosoides sigmodontis (LTMOSI L3) larval motility; conditions: 72 h, read-out: EC50 (reduction of motility)
Procedure: In Vitro Assay 6: Litomosoides sigmodontis (LTMOSI L3)
10 Litomosoides sigmodontis third-stage larvae, which were freshly isolated from the pleural cavity of an infected rodent, were added to wells of a microtitre plate containing a nutrient medium and the test compound in DMSO. Compounds were tested in concentration-response assay in duplicate. Larvae exposed to DMSO and no test compounds were used as negative controls. Larvae were evaluated after 72 h of incubation with the compound. Efficacy was determined as the reduction of motility in comparison to the negative control. Based on the evaluation of a wide concentration range, concentration-response curves as well as EC50-values were calculated.

C. elegans Slo-1a = C. elegans Slo-1a (Caenorhabditis elegans, UniProt Q95V25); conditions: pE50 (negative decadic logarithm of EC50), CHO cells expressing C. elegans Slo-1a; voltage sensitive dye, 70 mM KCl
C. elegans Slo-1a, sequence (Q95V25 whole entry): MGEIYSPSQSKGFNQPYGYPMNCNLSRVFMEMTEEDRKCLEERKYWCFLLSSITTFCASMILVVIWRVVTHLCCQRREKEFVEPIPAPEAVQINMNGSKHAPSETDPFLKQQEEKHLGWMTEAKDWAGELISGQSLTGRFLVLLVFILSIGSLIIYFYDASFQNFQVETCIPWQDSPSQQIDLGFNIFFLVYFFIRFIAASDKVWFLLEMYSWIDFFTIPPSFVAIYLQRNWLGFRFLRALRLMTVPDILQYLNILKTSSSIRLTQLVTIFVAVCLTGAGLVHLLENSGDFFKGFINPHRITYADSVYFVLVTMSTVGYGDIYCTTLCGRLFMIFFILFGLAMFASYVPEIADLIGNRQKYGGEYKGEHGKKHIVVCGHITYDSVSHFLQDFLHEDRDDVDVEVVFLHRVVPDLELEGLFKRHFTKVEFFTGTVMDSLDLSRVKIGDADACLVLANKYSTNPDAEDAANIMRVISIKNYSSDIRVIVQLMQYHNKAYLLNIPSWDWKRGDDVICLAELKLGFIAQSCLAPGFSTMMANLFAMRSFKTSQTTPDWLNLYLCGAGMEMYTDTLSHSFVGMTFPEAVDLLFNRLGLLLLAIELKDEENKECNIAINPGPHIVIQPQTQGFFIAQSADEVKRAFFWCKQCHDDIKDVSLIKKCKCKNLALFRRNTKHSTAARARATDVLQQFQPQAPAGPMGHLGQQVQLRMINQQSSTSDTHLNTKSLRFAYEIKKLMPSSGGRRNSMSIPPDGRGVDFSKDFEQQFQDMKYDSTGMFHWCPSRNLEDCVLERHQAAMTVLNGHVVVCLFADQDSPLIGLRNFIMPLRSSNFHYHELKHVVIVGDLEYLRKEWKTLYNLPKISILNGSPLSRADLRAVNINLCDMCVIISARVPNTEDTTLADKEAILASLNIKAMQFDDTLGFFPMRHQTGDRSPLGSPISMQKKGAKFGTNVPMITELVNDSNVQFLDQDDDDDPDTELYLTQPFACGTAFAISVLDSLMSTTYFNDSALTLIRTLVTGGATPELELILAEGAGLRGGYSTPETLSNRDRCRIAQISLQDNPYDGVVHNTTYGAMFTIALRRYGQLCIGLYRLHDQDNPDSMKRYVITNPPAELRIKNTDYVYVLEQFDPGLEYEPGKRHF
Procedure: Generation of a Stable C. elegans CHO Cell Line
A CHO cell line was obtained from ATCC, code ATCC CRL-9096. […] The transfection solution included 300 μL OptiMEM (Life Technologies, Nr.: 31985), 2 μL (=6 μg) of plasmid DNA containing the C. elegans Slo 1a gene and 9 μL FugeneHD (Promega, Nr.: E2311), and was added to the cells prior to incubation for 48 hours at 37° C., 5% CO2. The transfection medium was exchanged for the selection medium which contains additional G418 (2 mg/ml, Invitrogen, Nr.: 10131) and the cells were seeded into 384 well plates (300 cells/well). After a few weeks, the remaining surviving cells were tested with a voltage sensitive dye (Membrane Potential Assay Kit, Molecular Devices Nr.: R8034) for K+ channel expression. Positive cell clones were purified by the limited dilution technique. For this the clone with the highest and most robust signal in the voltage sensitive dye assay was further subcloned (incubated) in 384 well plates (0.7 cells/well) in order to obtain clonal purity. This generated a final stable CHO cell line expressing the C. elegans Slo-1a.
Cells were cultured at 37° C. and 5% CO2 in MEMalpha with Gutamax I (Invitrogen, Nr.: 32571), supplemented with 10% (v/v) heat inactivated fetal bovine serum (Invitrogen, Nr.: 10500), G418 (1 mg/ml, Invitrogen, Nr.: 10131). Cells were detached using Accutase (Sigma, Nr.: A6964).
Membrane Potential Measurements
Laboratory compound testing was performed on 384-well microtiter plates (MTPs, Greiner, Nr.: 781092). 8000 cells/well were plated onto 384-well MTPs and cultured for 20 to 24 hours at 37° C. and 5% CO2. After removal of the cell culture medium, the cells were washed once with tyrode (150 mM NaCl, 0.3 mM KCl, 2 mM CaCl2, 1 mM MgCl2, 0.8 mM NaH2PO4, 5 mM Glucose, 28 mM Hepes, pH 7.4) and then loaded with the voltage sensitive dye of the Membrane Potential Assay Kit diluted in tyrode for 1 h at room temperature.
After starting the measurement of fluorescence using a FLIPR Tetra (Molecular Devices, Exc. 510-545 nm, Emm. 565-625 nm), test compounds were added followed by the addition of KCl tyrode (final assay concentration: 70 mM KCl, 2 mM CaCl2, 1 mM MgCl2, 0.8 mM NaH2PO4, 5 mM Glucose, 28 mM Hepes, pH 7.4, including the voltage sensitive dye). The measurement was completed after 7 minutes.
The data were evaluated by using the ActivityBase XLfit software (IDBS) for curve fitting and calculation of the half-maximal effective concentration (EC50) and are reported as negative decadic logarithm (pE50).

D. immitis Slo-1, sequence (I0DFK5 1-1119): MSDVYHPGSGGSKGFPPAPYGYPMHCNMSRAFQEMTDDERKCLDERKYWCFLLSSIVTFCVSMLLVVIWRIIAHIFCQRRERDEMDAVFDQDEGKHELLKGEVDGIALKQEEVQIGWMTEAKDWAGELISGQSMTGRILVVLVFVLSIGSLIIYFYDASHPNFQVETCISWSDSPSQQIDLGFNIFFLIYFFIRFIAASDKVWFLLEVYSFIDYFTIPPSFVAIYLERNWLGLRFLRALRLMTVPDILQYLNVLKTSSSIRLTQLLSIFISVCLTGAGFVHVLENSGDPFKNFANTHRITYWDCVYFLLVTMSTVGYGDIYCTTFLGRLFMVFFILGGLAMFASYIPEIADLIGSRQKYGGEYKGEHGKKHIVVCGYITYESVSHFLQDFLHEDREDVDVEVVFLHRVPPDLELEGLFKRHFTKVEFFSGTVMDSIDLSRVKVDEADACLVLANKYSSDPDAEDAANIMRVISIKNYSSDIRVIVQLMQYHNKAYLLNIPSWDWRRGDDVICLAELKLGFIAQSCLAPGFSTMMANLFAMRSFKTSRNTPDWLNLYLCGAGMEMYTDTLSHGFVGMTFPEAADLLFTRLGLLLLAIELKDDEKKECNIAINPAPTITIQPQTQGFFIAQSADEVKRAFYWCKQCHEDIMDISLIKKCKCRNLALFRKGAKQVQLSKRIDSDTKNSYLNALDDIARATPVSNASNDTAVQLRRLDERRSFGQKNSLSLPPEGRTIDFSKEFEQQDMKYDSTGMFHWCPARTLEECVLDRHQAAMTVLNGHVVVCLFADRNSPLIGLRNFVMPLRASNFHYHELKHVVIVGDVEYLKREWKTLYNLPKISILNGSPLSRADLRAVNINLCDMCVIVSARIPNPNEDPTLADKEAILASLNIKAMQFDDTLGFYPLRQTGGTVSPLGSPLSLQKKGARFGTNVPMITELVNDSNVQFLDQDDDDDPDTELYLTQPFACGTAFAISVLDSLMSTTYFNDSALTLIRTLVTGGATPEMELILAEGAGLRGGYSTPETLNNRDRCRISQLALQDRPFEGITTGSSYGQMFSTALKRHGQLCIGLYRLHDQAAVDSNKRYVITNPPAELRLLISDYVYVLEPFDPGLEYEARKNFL

Structure (SMILES)	EC50 (D. immitis Slo-1)	inhibition at 1 µg/mL [1]	EC50 [2]	EC50 (Dirofilaria immitis)	mortality at 4 ppm (Cooperia curticei)	mortality at 20 ppm (Cooperia curticei)	mortality at 20 ppm (Haemonchus contortus)	EC50 [3]	EC50 (C. elegans Slo-1a)	inhibition at 10 µg/mL [1]
CN(C)c1c(C(=O)N[C@H]2CCOc3ccccc32)cnc2c(-c3cc(Cl)cc(Cl)c3)nccc12 [Example T1-1, 8-(3,5-Dichlorophenyl)-N-[(4S)-3,4-dihydro-2H-chromen-4-yl]-4-(dimethylamino)-1,7-naphthyridine-3-carboxamide]	31.6 to 316 nM	> 80%	< 0.1 µg/mL	< 0.1 µg/mL	100%	100%	100%	< 0.1 µg/mL	3.16 to 31.6 nM	
O=C(N[C@H]1CCOc2ccccc21)c1cnc2c(-c3cccc(Cl)c3Cl)nccc2c1N1CCOCC1 [Example T1-4, 8-(2,3-Dichlorophenyl)-N-[(4S)-3,4-dihydro-2H-chromen-4-yl]-4-(morpholin-4-yl)-1,7-naphthyridine-3-carboxamide]	31.6 to 316 nM	> 80%	< 0.1 µg/mL	< 0.1 µg/mL	100%			< 0.1 µg/mL	3.16 to 31.6 nM	> 80%
O=C(N[C@H]1CCOc2ccccc21)c1cnc2c(-c3cc(F)cc(F)c3F)nccc2c1N1CCOCC1 [Example T1-5, N-[(4S)-3,4-dihydro-2H-1-benzopyran-4-yl]-4-(morpholin-4-yl)-8-(2,3,5-trifluorophenyl)-1,7-naphthyridine-3-carboxamide]	31.6 to 316 nM	> 80%	< 0.1 µg/mL	< 0.1 µg/mL	100%	100%	80%	< 0.1 µg/mL	3.16 to 31.6 nM	> 80%
COc1ncc(-c2cccc(Cl)c2Cl)c2ncc(C(=O)N[C@H]3CCOc4ccccc43)c(N(C)C)c12 [Example T2-12, 8-(2,3-dichlorophenyl)-N-[(4S)-3,4-dihydro-2H-1-benzopyran-4-yl]-4-(dimethylamino)-5-methoxy-1,6-naphthyridine-3-carboxamide]	31.6 to 316 nM	> 80%	< 0.1 µg/mL	< 0.1 µg/mL				< 0.1 µg/mL	< 3.16 nM	> 80%
CN(C)c1c(C(=O)N[C@H]2CCOc3ccccc32)cnc2c(-c3cc(Cl)cc(Cl)c3)ccnc12 [Example T3-1, 8-(3,5-Dichlorophenyl)-N-[(4S)-3,4-dihydro-2H-chromen-4-yl]-4-(dimethylamino)-1,5-naphthyridine-3-carboxamide]	3.16 to 31.6 nM	> 80%	< 0.1 µg/mL	< 0.1 µg/mL	100%	100%	100%	< 0.1 µg/mL	3.16 to 31.6 nM and < 3.16 nM	
CN(C)c1c(C(=O)N[C@H]2CCOc3ccccc32)cnc2c(-c3cccc(Cl)c3Cl)ccnc12 [Example T3-3, 8-(2,3-Dichlorophenyl)-N-[(4S)-3,4-dihydro-2H-chromen-4-yl]-4-(dimethylamino)-1,5-naphthyridine-3-carboxamide]	3.16 to 31.6 nM	> 80%	< 0.1 µg/mL	< 0.1 µg/mL	100%	100%	100%	< 0.1 µg/mL	< 3.16 nM	
COc1c(C(=O)N[C@H]2CCOc3ccccc32)nnc2c(-c3cccc(Cl)c3Cl)cccc12 [Example T5-7, 8-(2,3-Dichlorophenyl)-N-[(4S)-3,4-dihydro-2H-chromen-4-yl]-4-methoxycinnoline-3-carboxamide]	31.6 to 316 nM	> 80%	< 0.1 µg/mL	< 0.1 µg/mL	100%	100%	90%	< 0.1 µg/mL	< 3.16 nM	
